Measured values published in patent publication US5215744A, “Methods for the treatment of tumors” (Boehringer Ingelheim GmbH, priority 1987, dated 1993).
“Also recorded” adds a separate entry of the source. Like-named read-outs stand apart in the source and are kept apart here.

Key:
PLC/PRF/5 cells = experiment: Cell proliferation inhibition test (trypan-blue exclusion), continuous exposure; assay type: cell-based, human; details: HuIFN and dipyridamole (FIG. 5)
Text: (§1) Four established cell lines were used. These were MM-1CB, derived from tissues of malignant melanoma (level IV, pT4 N0 M0) in a person (Jpn. J. Dermatol. 96:947 (1986)); KT, derived from metastatic brain tumor in a person (J. Rad. Res. 26:59 (1985) and The 44th Meeting of Japanese Cancer Association, 718 (1985)); PLC/PRF/5, derived from human hepatoma (Brit. J. Cancer 34:509-515 (1976)) and a transformed cell line RSa (Virology 135:20-29 (1984), and J. Natl. Cancer Inst. 56:919-926 (1976)).
(§2) Cells were cultured with Eagle's minimal essential medium (EMEM) containing 10% fetal bovine serum (GIBCO, U.S.A.) and antibiotics ([…] streptomycin/ml and 100 units penicillin G/ml), in an incubator at 37° C. under 5% CO2.
(§3) Other chemical agents were purchased from the Nakarai Co., Ltd., Japan.
(§4) Changes of medium with and without agents were carried out every other day. The viable cells were determined by trypan-blue exclusion test and counted with a hemocytometer. The survival percentage ratio was expressed as (counts of viable cells in test dishes per counts of viable cells in control dishes) x 100%, as described elsewhere in, e.g., Mutation Research 106:357-376 (1982) and […]. 67:651-661 (1986).
(§5) Most of experiments were carried out under a dim light or in the dark. Results were expressed as the mean of values obtained from more than two independent experiments.

KT cells [1] = experiment: as above; assay type: cell-based, human
Text: as §1, §2, §3, §4, §5

MM-1CB = experiment: as above; assay type: cell-based, human
Text: as §1, §2, §3, §4, §5

[2] = test system: plasminogen activator-like protease; experiment: Protease activity after dipyridamole exposure (^125 I-fibrin release); assay type: cell-based, human (MM-1CB cells); details: dipyridamole alone; MM-1CB, 30 min (FIG. 13)
Text: Assay methods were similar to those described elsewhere (Suzuki et al., Mutation Res. 198:207-214 (1988)). Results were expressed as the total amount of ^125 I-radioactivity released from the labelled fibrin per protein contents.

[3] = test system: antiviral activity in culture medium; experiment: Antiviral activity (IFN production) in culture medium of treated cells; assay type: cell-based; details: 0.1 μM dipyridamole-treated cells
Text: Virol. 67:651-611 (1986).

KT cells [4] = experiment: DNA synthetic activity test ([^3 H]dTHD uptake into acid insoluble materials); assay type: cell-based, human; details: 0.1 μM dipyridamole with HuIFN-β (FIG. 8)
Text: as §1
[^3 H]dTHD uptake into acid insoluble materials were estimated in KT and RSa cells treated with the various agents, as described in J. Gen. Virol. 67:651-661 (1986).

LIZIO leukemia = details: with MTX; cited from earlier work
MM-1CB cells [5] = experiment: Growth rate of established tumors in nude mice; assay type: in vivo, human tumor cells in nude mice
Method: Growth rate of tumors after the apparent tumor appeared and then were treated with agents.
the two agents combination

metastasis = details: cited from earlier work
[6] = several hours after administration; cited from earlier work
[7] = test system: explanted mouse peritoneal leukocytes and other cells; details: in vitro; cited from earlier work
[8] = test system: MM-1CB, KT and PLC/PRF/5 cells; experiment: Anticellular action of HuIFN combined with dipyridamole (FIGS. 3-5); assay type: cell-based, human; details: FIGS. 3B, 4B and 5B
Method: as §4

RSa cells = experiment: DNA synthetic activity test ([^3 H]dTHD uptake into acid insoluble materials); assay type: cell-based, human; details: for activity at 0.1 µM: Homo sapiens, 24 h, RSa cells, read-out: DNA synthesis (% of control)
Text: as §1, with “(1976)). [^3 H]dTHD uptake into acid insoluble materials were estimated in KT and RSa cells treated with the various agents, as described in J. Gen. Virol. […] 67:651-661 (1986).” for “(1976)).”

[9] = test system: salvage pathway of DNA synthesis; details: cited from earlier work
[10] = test system: human ovarian carcinoma cell line; details: cited from earlier work
interferon effect = experiment: Enhancement of interferon effect in vitro; assay type: cell-based
[11] = test system: chinese hamster ovary cells; details: in vitro and in vivo; cited from earlier work
MM-1CB cells [12] = experiment: Tumor growth in nude mice, treatment from 3 days after MM-1CB implantation; assay type: in vivo, human tumor cells in male athymic nude mice (BALB/cA JcL-nu); details: combination of dipyridamole and interferon, 3 days after injection, vs each agent alone (FIG. 9)
Method: Male athymic nude mice (BALB/cA JcL-nu) used were 4 week old and weighed 14 to 18 g at the beginning of the experiment. All mice were given a basal diet (FR-II, Funabashi Nojo Co., Ltd., Funabashi) ad libitum.
Control animals were treated with phosphate buffered saline.
On day 62 post tumor implantation the size of each tumor was measured by caliper (two dimensions) and the measurements were converted to an approximation of tumor weight employing the formula: (a×b^2)/2, where a and b are the length and width of tumor, respectively.

OCCN(CCO)c1nc(N2CCCCC2)c2nc(N(CCO)CCO)nc(N3CCCCC3)c2n1 [dipyridamole, 2,6-bis(diethanolamine)-4,8-dipiperidino-pyrimido[5,4-d]pyrimidin]
synergistic inhibitory activity, susceptibility (PLC/PRF/5 cells): high susceptibility to the synergistic inhibitory activity
synergistic inhibitory activity, susceptibility (KT cells [1]; HuIFN and dipyridamole (FIG. 4)): high susceptibility to the synergistic inhibitory activity
inhibition of cell replication, combination (KT cells [1]; HuIFN-α with simultaneous dipyridamole (FIG. 4)): inhibition of cell replication was enhanced
influence on KT cell replication (KT cells [1]; dipyridamole alone, less than 0.1 μM (FIG. 4B)): scarcely influenced KT cell replication
concentration that enhances the inhibitory effect of HuIFN-α (KT cells [1]; with HuIFN-α (FIG. 4B)): less than 0.1 μM
effect with HuIFN-α, -β and -γ (MM-1CB; 0.1 μM dipyridamole continuously, 6 days (FIG. 3A)): additive effect with HuIFN-α, -β and -γ was also observed
inhibition of cell growth (MM-1CB; 0.1 μM dipyridamole with 10 units/ml HuIFN-β, more than 4 days (FIG. 1)): considerable inhibition of cell growth
suppression of cell proliferation (MM-1CB; agent alone: 10 units/ml HuIFN-β or 0.1 μM dipyridamole (FIG. 1)): only slightly effective in suppressing cell proliferation
lower concentration effective in enhancing the anticellular effect of HuIFN (MM-1CB; with HuIFN, 6 days (FIG. 3B)): 0.01 µM
activity of plasminogen activator-like protease [2]: induced after a few minutes of treatment
levels of antiviral activity in culture medium [3]: no detectable levels of antiviral activity
enhancement of HuIFN inhibitory effect on DNA synthesis (KT cells [4]): remarkably enhanced
antitumor activity of MTX (LIZIO leukemia): not dramatically improved
depression of tumor growth, combination (MM-1CB cells [5]; two agents given after tumor reached more than about 1 cm in diameter (FIG. 10)): not drastically effective in depressing tumor growth
effect of dipyridamole treatment prior to interferon (MM-1CB cells [5]; vs simultaneous administration (FIG. 10)): more effective than a simultaneous administration of the two agents
metastatic effect (metastasis): potential metastatic effect
concentration in blood [6]: a few micromoles
interferon production [7]: induced interferon production in vitro in explanted mouse peritoneal leukocytes and other cells
most effective concentration for the synergistic enhancement of HuIFN action [8]: less than 0.1 μM
DNA synthesis inhibition, comparison in words (RSa cells; 0.1 μM dipyridamole or mopidamole, alone vs combined with HuIFN-α): inhibited less than with combined treatment with HuIFN-α; also recorded: significantly more effective than mopidamole/HuIFN-α
activity at 0.1 µM (RSa cells; agent 0.1 μM combined with HuIFN-α 1 unit/ml): 61%
activity at 0.1 µM (RSa cells; agent 0.1 μM, HuIFN-α 0 unit/ml): 92%
block of the salvage pathway of DNA synthesis [9]: effective blocker of the salvage pathway of DNA synthesis
cytotoxicity of its own ([10]; dipyridamole alone): no cytotoxicity of its own
PALA activity ([10]; with PALA): increased PALA activity
dose that enhances the interferon effect in vitro (interferon effect): less than 1 μM
toxicity of methotrexate (MTX) [11]: enhanced the toxicity of methotrexate (MTX)
inhibition of tumor growth (MM-1CB cells [12]): more noticeably inhibited
